Experimental data as given in publication PMC5218480 (PLoS ONE, 2017).

Test system: MV-4-11 cells
Assay: Gene expression microarray analysis (Affymetrix PrimeView) and GSEA
Format: cell-based, human
Design: RFU PODN (11730768_x_at) / Fold change /veh PODN (11730768_x_at) / RFU LINC00158 (11744669_a_at) / Fold change /veh LINC00158 (11744669_a_at) / RFU DUSP10 (11751237_a_at) / Fold change /veh DUSP10 (11751237_a_at) / RFU ID3 (11757404_x_at) / Fold change /veh ID3 (11757404_x_at) / RFU PLEKHG5 (11737974_s_at) / Fold change /veh PLEKHG5 (11737974_s_at) / RFU LRRC4B (11730491_at) / Fold change /veh LRRC4B (11730491_at) / RFU GIMAP4 (11747438_a_at) / Fold change /veh GIMAP4 (11747438_a_at) / RFU KRT8 (11758183_x_at) / Fold change /veh KRT8 (11758183_x_at) / RFU CNN1 (11734310_a_at) / Fold change /veh CNN1 (11734310_a_at) / RFU VPS37D (11726825_at) / Fold change /veh VPS37D (11726825_at) / RFU C10orf10 (11716522_x_at) / Fold change /veh C10orf10 (11716522_x_at) / RFU KIR2DL2 /// KIR2DL4 /// KIR2DL5A /// KIR2DL5B /// KIR2DS1 /// KIR2DS2 /// KIR2DS3 /// KIR2DS4 /// KIR3DL3 /// KIR3DL3 /// KIR3DS1 (11738374_at) / Fold change /veh KIR2DL2 /// KIR2DL4 /// KIR2DL5A /// KIR2DL5B /// KIR2DS1 /// KIR2DS2 /// KIR2DS3 /// KIR2DS4 /// KIR3DL3 /// KIR3DL3 /// KIR3DS1 (11738374_at) / RFU C1QL1 (11718748_at) / Fold change /veh C1QL1 (11718748_at) / RFU TMPRSS4 (11747572_a_at) / Fold change /veh TMPRSS4 (11747572_a_at) / RFU HAMP (11756126_x_at) / Fold change /veh HAMP (11756126_x_at) / RFU RNFT2 (11725882_a_at) / Fold change /veh RNFT2 (11725882_a_at) / RFU NR4A2 (11747474_a_at) / Fold change /veh NR4A2 (11747474_a_at) / RFU ABCC12 (11746883_a_at) / Fold change /veh ABCC12 (11746883_a_at) / RFU TMEM136 (11760407_x_at) / Fold change /veh TMEM136 (11760407_x_at) / RFU CLDN22 /// WWC2 (11732394_at) / Fold change /veh CLDN22 /// WWC2 (11732394_at) / RFU HLA-DPB1 (11760878_x_at) / Fold change /veh HLA-DPB1 (11760878_x_at) / RFU SPINT1 (11716480_a_at) / Fold change /veh SPINT1 (11716480_a_at) / RFU GAP43 (11754022_s_at) / Fold change /veh GAP43 (11754022_s_at) / RFU A4GNT (11735810_at) / Fold change /veh A4GNT (11735810_at) / RFU PRB3 (11715151_x_at) / Fold change /veh PRB3 (11715151_x_at) / RFU TUBB4B (11761932_at) / Fold change /veh TUBB4B (11761932_at) / RFU CAPN14 (11732068_a_at) / Fold change /veh CAPN14 (11732068_a_at) / RFU TMCC2 (11721928_a_at) / Fold change /veh TMCC2 (11721928_a_at) / RFU IRGQ (11745062_a_at) / Fold change /veh IRGQ (11745062_a_at) / RFU FAM174B (11720279_a_at) / Fold change /veh FAM174B (11720279_a_at) / RFU TMPRSS4 (11748680_a_at) / Fold change /veh TMPRSS4 (11748680_a_at) / RFU FAM212B (11763350_a_at) / Fold change /veh FAM212B (11763350_a_at) / RFU PLEKHG5 (11743358_a_at) / Fold change /veh PLEKHG5 (11743358_a_at) / RFU ZSCAN30 (11745921_a_at) / Fold change /veh ZSCAN30 (11745921_a_at) / RFU CMKLR1 (11741424_a_at) / Fold change /veh CMKLR1 (11741424_a_at) / RFU LOC101060620 /// MAPK8IP1 (11723275_at) / Fold change /veh LOC101060620 /// MAPK8IP1 (11723275_at) / RFU SPTSSB (11747773_x_at) / Fold change /veh SPTSSB (11747773_x_at) / RFU PRSS12 (11739890_at) / Fold change /veh PRSS12 (11739890_at) / RFU BIN1 (11741810_x_at) / Fold change /veh BIN1 (11741810_x_at) / RFU WNT11 (11732464_a_at) / Fold change /veh WNT11 (11732464_a_at) / RFU C10orf10 (11716521_a_at) / Fold change /veh C10orf10 (11716521_a_at) / RFU C5orf56 (11738089_at) / Fold change /veh C5orf56 (11738089_at) / RFU CYB561 (11721691_x_at) / Fold change /veh CYB561 (11721691_x_at) / RFU ANKRD19P (11752326_a_at) / Fold change /veh ANKRD19P (11752326_a_at) / RFU OR2T12 /// OR2T33 /// OR2T8 (11738714_s_at) / Fold change /veh OR2T12 /// OR2T33 /// OR2T8 (11738714_s_at) / RFU VCAN (11748164_a_at) / Fold change /veh VCAN (11748164_a_at) / RFU JSRP1 (11732532_at) / Fold change /veh JSRP1 (11732532_at) / RFU KRTAP10-11 (11738290_x_at) / Fold change /veh KRTAP10-11 (11738290_x_at) / RFU MYO3A (11730013_a_at) / Fold change /veh MYO3A (11730013_a_at) / RFU EBF3 (11725865_a_at) / Fold change /veh EBF3 (11725865_a_at) / RFU CAMK2N1 (11719241_x_at) / Fold change /veh CAMK2N1 (11719241_x_at) / RFU C5orf56 (11738088_a_at) / Fold change /veh C5orf56 (11738088_a_at) / RFU OLFML3 (11715873_a_at) / Fold change /veh OLFML3 (11715873_a_at) / RFU LOC100653217 /// NTM (11731650_a_at) / Fold change /veh LOC100653217 /// NTM (11731650_a_at) / RFU MAPK11 (11762145_a_at) / Fold change /veh MAPK11 (11762145_a_at) / RFU FIZ1 (11724087_x_at) / Fold change /veh FIZ1 (11724087_x_at) / RFU OASL (11726364_x_at) / Fold change /veh OASL (11726364_x_at) / RFU SOX15 (11748057_x_at) / Fold change /veh SOX15 (11748057_x_at) / RFU CD79A (11719716_a_at) / Fold change /veh CD79A (11719716_a_at) / RFU HIST1H1D (11736915_at) / Fold change /veh HIST1H1D (11736915_at) / RFU CASKIN2 (11723855_a_at) / Fold change /veh CASKIN2 (11723855_a_at) / RFU LOC730098 (11760151_x_at) / Fold change /veh LOC730098 (11760151_x_at) / RFU OR4N2 (11742367_at) / Fold change /veh OR4N2 (11742367_at) / RFU PRRT2 (11749266_a_at) / Fold change /veh PRRT2 (11749266_a_at) / RFU SNX32 (11753110_a_at) / Fold change /veh SNX32 (11753110_a_at) / RFU CDHR5 (11726645_a_at) / Fold change /veh CDHR5 (11726645_a_at) / RFU RCAN1 (11760418_a_at) / Fold change /veh RCAN1 (11760418_a_at) / RFU FAM167A (11723789_a_at) / Fold change /veh FAM167A (11723789_a_at) / RFU FAM26E (11764081_at) / Fold change /veh FAM26E (11764081_at) / RFU ISYNA1 (11749810_s_at) / Fold change /veh ISYNA1 (11749810_s_at) / RFU ACY1 (11761880_at) / Fold change /veh ACY1 (11761880_at) / RFU 11764098_at / Fold change /veh 11764098_at / RFU SAMD14 (11745864_x_at) / Fold change /veh SAMD14 (11745864_x_at) / RFU NPB (11741838_a_at) / Fold change /veh NPB (11741838_a_at) / RFU TMPRSS6 (11731388_a_at) / Fold change /veh TMPRSS6 (11731388_a_at) / RFU KRTAP10-2 (11738614_at) / Fold change /veh KRTAP10-2 (11738614_at) / RFU ARHGAP8 /// PRR5-ARHGAP8 (11727945_x_at) / Fold change /veh ARHGAP8 /// PRR5-ARHGAP8 (11727945_x_at) / RFU KRTAP5-7 /// NADSYN1 (11734609_at) / Fold change /veh KRTAP5-7 /// NADSYN1 (11734609_at) / RFU RASL12 (11751679_a_at) / Fold change /veh RASL12 (11751679_a_at) / RFU CDKN2B (11736163_a_at) / Fold change /veh CDKN2B (11736163_a_at) / RFU PRF1 (11729649_at) / Fold change /veh PRF1 (11729649_at) / RFU, ZNF638 /// ZNF638-IT1 / Fold change vs veh, ZNF638 /// ZNF638-IT1 / RFU, PANK3 / Fold change vs veh, PANK3 / RFU, SH3YL1 / Fold change vs veh, SH3YL1 / RFU, ZEB2 / Fold change vs veh, ZEB2 / RFU, NRIP1 / Fold change vs veh, NRIP1 / RFU, PTTG1IP / Fold change vs veh, PTTG1IP / RFU, CAPN2 / Fold change vs veh, CAPN2 / RFU, MED14 / Fold change vs veh, MED14 / RFU, SNORA58 / Fold change vs veh, SNORA58 / RFU, C1orf63 / Fold change vs veh, C1orf63 / RFU, LRRFIP1 / Fold change vs veh, LRRFIP1 / RFU, NDUFAF7 / Fold change vs veh, NDUFAF7 / RFU, SLC12A2 / Fold change vs veh, SLC12A2 / RFU, IBTK / Fold change vs veh, IBTK / RFU, ESF1 / Fold change vs veh, ESF1 / Fold change vs veh, TMEM50B / RFU, TAOK1 / Fold change vs veh, TAOK1 / RFU, ACBD3 / Fold change vs veh, ACBD3 / RFU, TMA16 / Fold change vs veh, TMA16 / RFU, RWDD3 / Fold change vs veh, RWDD3 / RFU, BCAT1 / Fold change vs veh, BCAT1 / RFU, EDEM3 / Fold change vs veh, EDEM3 / RFU, TMEM33 / Fold change vs veh, TMEM33 / RFU, WDR75 / Fold change vs veh, WDR75 / RFU, AHCTF1 / Fold change vs veh, AHCTF1 / RFU, TFRC / Fold change vs veh, TFRC / RFU, ZDHHC17 / Fold change vs veh, ZDHHC17 / RFU, NOM1 / Fold change vs veh, NOM1 / RFU, ARL8B / Fold change vs veh, ARL8B / RFU, ZBTB11 / Fold change vs veh, ZBTB11 / RFU, TAMM41 / Fold change vs veh, TAMM41 / RFU, KIAA1704 /// LOC100996395 / Fold change vs veh, KIAA1704 /// LOC100996395 / RFU, ING1 / Fold change vs veh, ING1 / RFU, TRMT61B / Fold change vs veh, TRMT61B / RFU, FUBP3 / Fold change vs veh, FUBP3 / RFU, TP53 / Fold change vs veh, TP53 / RFU, TNKS2 / Fold change vs veh, TNKS2 / RFU, ZFP14 / Fold change vs veh, ZFP14 / RFU, ACTR2 / Fold change vs veh, ACTR2 / RFU, PPP3R1 / Fold change vs veh, PPP3R1 / RFU, PIK3R1 / Fold change vs veh, PIK3R1 / RFU, HNRNPA1 / Fold change vs veh, HNRNPA1 / RFU, RNF170 / Fold change vs veh, RNF170 / RFU, ZNF28 / Fold change vs veh, ZNF28 / RFU, RNGTT / Fold change vs veh, RNGTT / RFU, OGT / Fold change vs veh, OGT / RFU, BRD1 / Fold change vs veh, BRD1 / RFU, MARS / Fold change vs veh, MARS / RFU, ZNF655 / Fold change vs veh, ZNF655 / RFU, FAHD1 / Fold change vs veh, FAHD1 / RFU, BDP1 / Fold change vs veh, BDP1 / RFU, LRRCC1 / Fold change vs veh, LRRCC1 / RFU, ARID1A / Fold change vs veh, ARID1A / RFU, ZNF146 / Fold change vs veh, ZNF146 / RFU, ZNF330 / Fold change vs veh, ZNF330 / RFU, GPN3 / Fold change vs veh, GPN3 / RFU, C9orf123 / Fold change vs veh, C9orf123 / RFU, N4BP2L2 / Fold change vs veh, N4BP2L2 / RFU, ARFIP1 / Fold change vs veh, ARFIP1 / RFU, FAM179B / Fold change vs veh, FAM179B / RFU, BCL10 / Fold change vs veh, BCL10 / RFU, UHRF1BP1L / Fold change vs veh, UHRF1BP1L / RFU, BET1 / Fold change vs veh, BET1 / RFU, CNOT2 / Fold change vs veh, CNOT2 / RFU, ZNF268 / Fold change vs veh, ZNF268 / Fold change vs veh, ZNF507 / RFU, DGCR2 / Fold change vs veh, DGCR2 / RFU, WDSUB1 / Fold change vs veh, WDSUB1 / Fold change vs veh, HSP90B1 /// MIR3652 / RFU, ADSS / Fold change vs veh, ADSS / RFU, GK / Fold change vs veh, GK / RFU, ZNF148 / Fold change vs veh, ZNF148 / RFU, TAF9 / Fold change vs veh, TAF9 / RFU, SLC1A5 / Fold change vs veh, SLC1A5 / RFU, SLMO2 / Fold change vs veh, SLMO2 / RFU, ABCC4 / Fold change vs veh, ABCC4 / RFU, LOC101060439 /// RAP1B / Fold change vs veh, LOC101060439 /// RAP1B / RFU, RFX7 / Fold change vs veh, RFX7 / RFU, GTPBP10 / Fold change vs veh, GTPBP10 / RFU, CNEP1R1 / Fold change vs veh, CNEP1R1 / RFU, BIVM-ERCC5 /// ERCC5 / Fold change vs veh, BIVM-ERCC5 /// ERCC5 / RFU, ILF3 / Fold change vs veh, ILF3 / RFU 11762660_at / Fold change /veh 11762660_at / RFU VCAN (11757783_s_at) / Fold change /veh VCAN (11757783_s_at) / RFU DDX43 (11728927_at) / Fold change /veh DDX43 (11728927_at) / RFU KRT8 (11758188_x_at) / Fold change /veh KRT8 (11758188_x_at) / RFU NKD1 (11759106_at) / Fold change /veh NKD1 (11759106_at) / RFU SRD5A1 (11742802_a_at) / Fold change /veh SRD5A1 (11742802_a_at) / RFU TPSAB1 /// TPSB2 (11721975_s_at) / Fold change /veh TPSAB1 /// TPSB2 (11721975_s_at) / RFU GSTM3 (11746129_a_at) / Fold change /veh GSTM3 (11746129_a_at) / RFU IL23R (11737362_x_at) / Fold change /veh IL23R (11737362_x_at) / RFU TMEM51 (11727254_a_at) / Fold change /veh TMEM51 (11727254_a_at) / RFU PIWIL2 (11732686_x_at) / Fold change /veh PIWIL2 (11732686_x_at) / RFU ORM1 (11744905_x_at) / Fold change /veh ORM1 (11744905_x_at) / RFU CCDC152 (11743942_at) / Fold change /veh CCDC152 (11743942_at) / RFU ECM1 (11717891_a_at) / Fold change /veh ECM1 (11717891_a_at) / RFU IL23R (11748794_a_at) / Fold change /veh IL23R (11748794_a_at) / RFU TNFAIP8L3 (11732012_x_at) / Fold change /veh TNFAIP8L3 (11732012_x_at) / RFU MBOAT4 (11741988_at) / Fold change /veh MBOAT4 (11741988_at) / RFU 11764193_at / Fold change /veh 11764193_at / RFU TMEM53 (11763286_at) / Fold change /veh TMEM53 (11763286_at) / RFU MAGEB2 (11727129_at) / Fold change /veh MAGEB2 (11727129_at) / RFU TMEM200A (11744735_a_at) / Fold change /veh TMEM200A (11744735_a_at) / RFU CCDC152 (11751479_a_at) / Fold change /veh CCDC152 (11751479_a_at) / RFU FAM211A (11726209_a_at) / Fold change /veh FAM211A (11726209_a_at) / RFU RGS16 (11746705_a_at) / Fold change /veh RGS16 (11746705_a_at) / RFU VCAN (11755009_s_at) / Fold change /veh VCAN (11755009_s_at) / RFU RHOB (11743442_s_at) / Fold change /veh RHOB (11743442_s_at) / RFU RGS16 (11720943_a_at) / Fold change /veh RGS16 (11720943_a_at) / RFU RGS16 (11720944_at) / Fold change /veh RGS16 (11720944_at) / RFU, VPS4B / Fold change vs veh, VPS4B / RFU, CREB1 / Fold change vs veh, CREB1 / RFU, DNAJC13 / Fold change vs veh, DNAJC13 / RFU, GNAQ / Fold change vs veh, GNAQ / RFU, CDK5R1 / Fold change vs veh, CDK5R1 / RFU, ZRANB3 / Fold change vs veh, ZRANB3 / RFU, CUL4A / Fold change vs veh, CUL4A / RFU, CCNY / Fold change vs veh, CCNY / RFU, UFL1 / Fold change vs veh, UFL1 / RFU, COG3 / Fold change vs veh, COG3 / RFU, DIAPH2 / Fold change vs veh, DIAPH2 / RFU, SKA2 / Fold change vs veh, SKA2 / RFU, AFF3 / Fold change vs veh, AFF3 / RFU, LMF1 / Fold change vs veh, LMF1 / RFU, IPO11 / Fold change vs veh, IPO11 / RFU, DFFB / Fold change vs veh, DFFB / RFU, FOXP1 / Fold change vs veh, FOXP1 / RFU, CARD8 / Fold change vs veh, CARD8 / RFU, STRN3 / Fold change vs veh, STRN3 / RFU, ADK / Fold change vs veh, ADK / RFU, RASSF2 / Fold change vs veh, RASSF2 / RFU, WIPF1 / Fold change vs veh, WIPF1 / RFU, LARP1B / Fold change vs veh, LARP1B / RFU, RASA1 / Fold change vs veh, RASA1 / RFU, RB1 / Fold change vs veh, RB1 / RFU, PPFIA1 / Fold change vs veh, PPFIA1 / RFU, MAT2A / Fold change vs veh, MAT2A / RFU, CCT5 / Fold change vs veh, CCT5 / RFU, WDR92 / Fold change vs veh, WDR92 / RFU, CUX1 / Fold change vs veh, CUX1 / RFU, TTC7A / Fold change vs veh, TTC7A / RFU, TMEM135 / Fold change vs veh, TMEM135 / RFU, DEPTOR / Fold change vs veh, DEPTOR / RFU, CPM / Fold change vs veh, CPM / RFU, DNAJB6 / Fold change vs veh, DNAJB6 / RFU, CACNA2D3 / Fold change vs veh, CACNA2D3 / RFU, DTX4 / Fold change vs veh, DTX4 / RFU, TFCP2 / Fold change vs veh, TFCP2 / RFU, GMCL1 /// GMCL1P1 / Fold change vs veh, GMCL1 /// GMCL1P1 / RFU, AEBP2 / Fold change vs veh, AEBP2 / RFU, SNHG1 /// SNORD22 /// SNORD25 /// SNORD26 /// SNORD27 /// SNORD28 /// SNORD29 /// SNORD31 / Fold change vs veh, SNHG1 /// SNORD22 /// SNORD25 /// SNORD26 /// SNORD27 /// SNORD28 /// SNORD29 /// SNORD31 / Fold change (Aza/veh), C12orf56 (ProbeSet 11735607_a_at) / Fold change (ACY-1035/veh), C12orf56 (ProbeSet 11735607_a_at) / Fold change (Aza/veh), FGFR1OP (ProbeSet 11751329_s_at) / Fold change (ACY-1035/veh), FGFR1OP (ProbeSet 11751329_s_at) / Fold change (Aza/veh), VPS36 (ProbeSet 11739960_a_at) / Fold change (ACY-1035/veh), VPS36 (ProbeSet 11739960_a_at) / RFU SYPL1 (11715823_x_at) / Fold change /veh SYPL1 (11715823_x_at) / RFU IGFBP7 (11715501_s_at) / Fold change /veh IGFBP7 (11715501_s_at) / RFU REEP3 (11722064_at) / Fold change /veh REEP3 (11722064_at) / RFU IGLL1 (11728026_x_at) / Fold change /veh IGLL1 (11728026_x_at): dose or concentration left out as unconfirmed
Conditions: MV-4-11 cells, 48 hours

Q: `Nc1ccc(-c2cccs2)cc1NC(=O)c1ccc2c(c1)cc(C1CC1)n2CCN1CCOCC1` [ACY-1035] was tested. Which “Fold change /veh CD79A (11719716_a_at)” value did it give?
A: 1.12
